Experimental data as given in patent US11000528B2, “Compound useful for the treatment of degenerative and inflammatory diseases” (Galapagos NV, priority 2009, dated 2021).

What was measured:
[1] = tested on: rat CIA model; assay: Rat collagen induced arthritis (CIA) model; type: in vivo; set-up: key to Clinical Assessment End point score / Clinical Assessment AUC Score / Paw swelling / Larsen' Score: a “*” indicates that there was a statistically significant improvement in the score, p 0.05 vs. untreated control; conditions: for Clinical Assessment AUC Score / Clinical Assessment End point score: normalized score
Protocol: Dark Agouti rats (male, 7-8 weeks old) were obtained from Harlan Laboratories (Maison-Alfort, France). Rats were kept on a 12 hr light/dark cycle (0700-1900). Temperature was maintained at 22° C., and food and water were provided ad libitum.
One day before the experiment, CII solution (2 mg/mL) was prepared with 0.05 M acetic acid and stored at 4° C. Just before the immunization, equal volumes of adjuvant (IFA) and CII were mixed by a homogenizer in a pre-cooled glass bottle in an ice water bath. Extra adjuvant and prolonged homogenization may be required if an emulsion is not formed. 0.2 mL of the emulsion was injected intradermally at the base of the tail of each rat on day 1, a second booster intradermal injection (CII solution at 2 mg/mL in CFA 0.1 mL saline) was performed on day 9. This immunization method was modified from published methods (Sims et al, 2004; Jou et al., 2005).
The therapeutic effects of the compounds were tested in the rat CIA model. Rats were randomly divided into equal groups and each group contained 10 rats. All rats were immunized on day 1 and boosted on day 9. Therapeutic dosing lasted from day 16 to day 30. The negative control group was treated with vehicle (MC 0.5%) and the positive control group with Enbrcl (10 mg/kg, 3× week., s.c.). A compound of interest was typically tested at 3 doses, e.g. 3, 10, 30 mg/kg, p.o.
Arthritis is scored according to the method of Khachigian 2006, Lin et al 2007 and Nishida et al. 2004). The swelling of each of the four paws is ranked with the arthritic score as follows: 0-no symptoms; 1-mild, but definite redness and swelling of one type of joint such as the ankle or wrist, or apparent redness and swelling limited to individual digits, regardless of the number of affected digits; 2-moderate redness and swelling of two or more types of joints; 3-severe redness and swelling of the entire paw including digits; 4-maximally inflamed limb with involvement of multiple joints (maximum cumulative clinical arthritis score 16 per animal) (Nishida et al., 2004).
To permit the meta-analysis of multiple studies the clinical score values were normalised as follows:
AUC of clinical score (AUC score): The area under the curve (AUC) from day 1 to day 14 was calculated for each individual rat. The AUC of each animal was divided by the average AUC obtained for the vehicle in the study from which the data on that animal was obtained and multiplied by 100 (i.e. the AUC was expressed as a percentage of the average vehicle AUC per study).
Clinical score increase from day 1 to day 14 (End point score): The clinical score difference for each animal was divided by the average clinical score difference obtained for the vehicle in the study from which the data on that animal was obtained and multiplied by 100 (i.e. the difference was expressed as a percentage of the average clinical score difference for the vehicle per study).
X-ray photos were taken of the hind paws of each individual animal. A random blind identity number was assigned to each of the photos, and the severity of bone erosion was ranked by two independent scorers with the radiological Larsen's score system as follows: 0—normal with intact bony outlines and normal joint space; 1—slight abnormality with any one or two of the exterior metatarsal bones showing slight bone erosion; 2—definite early abnormality with any three to five of the exterior metatarsal bones showing bone erosion; 3—medium destructive abnormality with all the exterior metatarsal bones as well as any one or two of the interior metatarsal bones showing definite bone erosions; 4—severe destructive abnormality with all the metatarsal bones showing definite bone erosion and at least one of the inner metatarsal joints completely eroded leaving some bony joint outlines partly preserved; 5—mutilating abnormality without bony outlines. This scoring system is a modification from Salvemini et al., 2001; Bush et al., 2002; Sims et al., 2004; Jou et al., 2005.

[2] = Microsomal stability, human liver microsomes; type: in vitro ADME; conditions: 3 μM compound
Protocol: (§1) A 10 mM stock solution of compound in DMSO was diluted 1000 fold in a 182 mM phosphate buffer pH7.4 in a 96 deep well plate (Greiner, Cat no. 780285) and pre-incubated at 37° C.
(§2) 40 μL of deionised water was added to a well of a polypropylene Matrix 2D barcode labelled storage tube (Thermo Scientific) and pre-incubated at 37° C.
(§3) A Glucose-6-phophate-dehydrogenase (G6PDH) working stock solution was prepared in 182 mM phosphate buffer pH7.4 and placed on ice before use. A co-factor containing MgCl2, glucose-6-phosphate and NADP+ was prepared in deionised water and placed on ice before use.
(§4) A final working solution containing liver microsomes (Xenotech) of a species of interest (human, mouse, rat, dog), previously described G6PDH and co-factors was prepared and this mix was incubated for no longer than 20 minutes at room temperature.
(§5) 30 μL of the pre-heated compound dilution was added to 40 μL of pre-heated water in the Matrix tubes and 30 μL of the microsomal mix was added. Final reaction concentrations were 3 μM compound, 1 mg microsomes, 0.4 U/mL GDPDH, 3.3 mM MgCl2, 3.3 mM glucose-6-phosphate and 1.3 mM NADP+.
(§6) To measure percentage remaining of compound at time zero MeOH or ACN was added (1:1) to the well before adding the microsomal mix. The plates were sealed with Matrix Sepra Seals™ (Matrix, Cat. No. 4464) and shaken for a few seconds ensure complete mixing of all components.
(§7) The samples which were not stopped are incubated at 37° C., 300 rpm and after 1 hr of incubation the reaction was stopped with MeOH or ACN (1:1).
(§8) After stopping the reaction the samples were mixed and placed on ice for 30 min to precipitate the proteins. The plates were then centrifuged 30 min at 1200 rcf at 4° C. and the supernatant was transferred to a 96 v-bottom PP plate (Greiner, 651201) for analysis on LCMS.
(§9) These plates were sealed with sealing mats (MA96RD-04S) of www.kinesis.co.uk and samples were measured at room temperature on LCMS (ZQ 1525 from Waters) under optimized conditions using Quanoptimize to determine the appropriate mass of the parent molecule.
(§10) The samples were analyzed on LCMS with a flow rate of 1 mL/min. Solvent A was 15 mM ammonia and solvent B was methanol or acetonitrile, depending on the stop solution used. The samples were run under positive ion spray on an XBridge C18 […] (2.1×30 mm) column, from Waters.
(§11) Peak area from the parent compound at time 0 was considered to be 100% remaining. The percentage remaining after 1 hr incubation was calculated from time 0 and was calculated as the percentage remaining. The solubility of the compound in the final test concentration in buffer is inspected by microscope and results are reported.
(§12) The data on microsomal stability are expressed as a percentage of the total amount of compound remaining after 60 min.

[3] = Microsomal stability, rat liver microsomes; type: in vitro ADME; conditions: 3 μM compound
Protocol: as §1, §2, §3, §4, §5, §6, §7, §8, §9, §10, §11, §12

[4] = Pharmacokinetic study in rodents (Sprague-Dawley rats); type: in vivo; conditions: male, plasma; Sprague-Dawley rat, IV 1 mg/kg
Protocol: Sprague-Dawley rats (male, 5-6 weeks old) were obtained from Janvier (France). Rats were acclimatized for at least 7 days before treatment and were kept on a 12 hr light/dark cycle (0700-1900). Temperature was maintained at approximately 22° C., and food and water were provided ad libitum. […] After the surgery, rats were housed individually. Rats were deprived of food for at least 16 hours before oral dosing and 6 hours after. Water was provided ad libitum.
Test compounds were orally dosed as a single esophageal gavage at 5 mg/kg under a dosing volume of 5 ml/kg and intravenously dosed as a bolus via the caudal vein at 1 mg/kg under a dosing volume of 5 mL/kg. Each group consisted of 3 rats. […] For compound 11, blood samples were collected at the retro-orbital sinus with lithium heparin as anti-coagulant at the following time points 0.25, 1, 3 and 6 hrs (oral route). Whole blood samples were centrifuged at 5000 rpm for 10 min and the resulting plasma samples were stored at −20° C. pending analysis.
Plasma concentrations of each test compound were determined by an LC-MS/MS method in which the mass spectrometer was operated in positive electrospray mode.
Pharmacokinetic parameters were calculated using Winnonlin® (Pharsight®, United States).

[5] = tested on: JAK-STAT signalling in HeLa cells; assay: JAK-STAT signalling assay (OSM-triggered pSTAT1(2)-luciferase reporter in HeLa cells); type: cell-based; conditions: Homo sapiens, human OSM 33 ng/mL, STAT1 luciferase reporter
Protocol: HeLa cells were maintained in Dulbecco's Modified Eagle's Medium (DMEM) containing 10% heat inactivated fetal calf serum, 100 U/mL penicillin and 100 μg/mL streptomycin. HeLa cells were used at 70% confluence for transfection. 20,000 cells in 87 μL cell culture medium were transiently transfected with 40 ng pSTAT1(2)-luciferase reporter (Panomics), 8 ng of LacZ reporter as internal control reporter and 52 ng of pBSK using 0.32 μL Jet-PEI (Polyplus) as transfection reagent per well in 96-well plate format. After overnight incubation at 37° C., 10% CO2, transfection medium was removed.
40 μL of cell lysate was used to read β-galactosidase activity by adding 180 μL β-Gal solution (30 μL ONPG 4 mg/mL+150 μL β-Galactosidase buffer (0.06 M Na2HPO4, 0.04 M NaH2PO4, 1 mM MgCl2)) for 20 min.
The positive and negative controls were used to calculate z′ and ‘percent inhibition’ (PIN) values.
PIN values were plotted for compounds tested in dose-response and EC50 values were derived.

[6] = tested on: Circulating TNF alpha levels; assay: Septic shock model (LPS-induced TNF alpha release); type: in vivo, mouse; conditions: BALB/cJ mice, 30 mg/kg po, LPS 15 μg/kg ip
Protocol: Injection of lipopolysaccharide (LPS) induces a rapid release of soluble tumour necrosis factor (TNF-alpha) into the periphery. This model was used to analyse prospective blockers of TNF release in vivo. Six BALB/cJ female mice (20 g) per group were treated at the intended dosing once, po. Thirty minutes later, LPS (15 μg/kg; E. coli serotype 0111:B4) was injected ip. Ninety minutes later, mice were euthanized and blood was collected. Circulating TNF alpha levels were determined using commercially available ELISA kits. Dexamethasone ([…]) was used as a reference anti-inflammatory compound. Selected compounds were tested at one or multiple doses, e.g. 3 and/or 10 and/or 30 mg/kg, po.

[7] = tested on: MMP13 levels in human chondrosarcoma cell line SW1353; assay: cells; conditions: SW1353, 48 h
Protocol: The cells were seeded in 96 well plates at 15,000 cells/well in a volume of 120 μL DMEM (Invitrogen) containing 10% (v/v) FBS and 1% penicillin/streptomycin (InVitrogen) incubated at 37° C. 5% CO2. Cells were preincubated with 15 μL of compound in M199 medium with 2% DMSO 1 hr before triggering with 15 μL OSM and IL-1β to reach 25 ng/mL OSM and 1 ng/mL IL-1β, and MMP13 levels were measured in conditioned medium 48 hours after triggering. MMP13 activity was measured using an antibody capture activity assay. For this purpose, 384 well plates (NUNC, 460518, MaxiSorb black) were coated with 35 μL of a 1.5 μg/mL anti-human MMP13 antibody (R&D Systems, MAB511) solution for 24 hrs at 4° C. After washing the wells 2 times with PBS+0.05% Tween, the remaining binding sites were blocked with 100 μL 5% non-fat dry milk (Santa Cruz, sc-2325, Blotto) in PBS for 24 hr at 4° C. […] After incubation for 24 hrs at 37° C. fluorescence of the converted substrate was measured in a Perkin Elmer Wallac EnVision 2102 Multilabel Reader (wavelength excitation: 320 nm, wavelength emission: 405 nm). Percentage inhibition=((fluorescence determined in the presence of vehicle−fluorescence determined for sample with test compound present) divided by (fluorescence determined in the presence of vehicle−fluorescence determined for sample without trigger))*100.

O=C(Nc1nc2cccc(-c3ccc(CN4CCOCC4)cc3)n2n1)C1CC1 [Compound 2, N-(5-(4-(morpholinomethyl)phenyl)-[1,2,4]triazolo[1,5-a]pyridin-2-yl)cyclopropanecarboxamide]
normalized clinical score values (on day 14) ([1]; dose of 10 mg/kg): statistically significant improvements | Larsen score ([1]; dose of 30 mg/kg): statistically significant increase | paw swelling readout ([1]; dose of 30 mg/kg): statistically significant increase | microsomal stability, percentage of compound remaining after 60 min, Human [2]: 73% | microsomal stability, percentage of compound remaining after 60 min, Rat [3]: 38% | C0 [4]: 863 ng/mL

O=C(Nc1nc2cccc(-c3ccc(CN4CCC(F)(F)CC4)cc3)n2n1)C1CC1 [Compound 11, Cyclopropanecarboxylic acid {5-[4-(4,4-difluoro-piperidin-1-ylmethyl)-phenyl]-[1,2,4]triazolo[1,5-a]pyridin-2-yl}-amide]
EC50 [5]: 0.74 µM | microsomal stability, percentage of compound remaining after 60 min, Human [2]: 51% | microsomal stability, percentage of compound remaining after 60 min, Rat [3]: 26%

O=C(Nc1nc2cccc(-c3ccc(C(=O)N4CCS(=O)(=O)CC4)cc3)n2n1)C1CC1 [Compound 10, Cyclopropanecarboxylic acid {5-[4-(1,1-dioxo-1-thiomorpholine-4-carbonyl)-phenyl]-[1,2,4]triazolo[1,5-a]yridin-2-yl}-amide]
microsomal stability, percentage of compound remaining after 60 min, Human [2]: 102% | microsomal stability, percentage of compound remaining after 60 min, Rat [3]: 89%

O=C(Nc1nc2cccc(-c3ccc(CN4CCS(=O)(=O)CC4)cc3)n2n1)C1CC1 [Compound 1, Cyclopropanecarboxylic acid {5-[4-(1,1-dioxo-1-thiomorpholin-4-ylmethyl)-phenyl]-[1,2,4]triazolo[1,5-a]pyridin-2-yl}-amide]
Clinical Assessment AUC Score ([1]; 0.1 mg/kg/day p.o.): * | Clinical Assessment End point score ([1]; 0.1 mg/kg/day p.o.): * | Paw swelling ([1]; 0.3 mg/kg/day p.o.): * | Clinical Assessment AUC Score ([1]; 0.3 mg/kg/day p.o.): * | Clinical Assessment End point score ([1]; 0.3 mg/kg/day p.o.): * | Paw swelling ([1]; 1 mg/kg/day p.o.): * | Clinical Assessment AUC Score ([1]; 1 mg/kg/day p.o.): * | Clinical Assessment End point score ([1]; 1 mg/kg/day p.o.): * | Larsen' Score ([1]; 3 mg/kg/day p.o.): * | Paw swelling ([1]; 3 mg/kg/day p.o.): * | Clinical Assessment AUC Score ([1]; 3 mg/kg/day p.o.): * | Clinical Assessment End point score ([1]; 3 mg/kg/day p.o.): * | normalized clinical score values (calculated as AUC or as the difference from day 1 to day 14) ([1]; dose of 0.1 mg/kg): statistically significant improvements | paw swelling readout ([1]; dose of 0.3 mg/kg): statistically significant increase | Larsen score ([1]; dose of 3 mg/kg): statistically significant increase | improvement in efficacy over Compound 2 when the oral doses are compared ([1]; oral doses compared): 100 fold | activity in septic shock model (blocking of TNF release) [6]: active | microsomal stability, percentage of compound remaining after 60 min, Human [2]: 87.2% | microsomal stability, percentage of compound remaining after 60 min, Rat [3]: 65.6% | C0 [4]: 1410 ng/mL | EC50 [7]: 2.24 µM
